Laboratory results published in patent publication US20230285498A1, “TREATMENTS FOR CANCERS HAVING KRAS MUTATIONS” (City of Hope, priority 2020, published 2023).
Read-outs that look alike come from different tables or passages of the source. One block for each molecule: values may come before it.

What was measured:
SW1573 [1] = assay: Drug combination synergy assay (inhibition matrix); assay type: cell-based; settings: Homo sapiens
Method: The synergy finder codes were used to determine the synergy between drugs for 48 possible combinations. The codes were run using the R-platform and synergy was calculated and represented as the synergy landscape.
Drug Combination Synergy Assay: For combination index (CI) calculation, SW1573 and H23 incured cell lines were seeded in 96-well plate with 5000 cells per well. Three biological replicates (three 96-well plates for each drug combination) were used. […] The drugs were used in linear dilution series with dilution factor of 2. […] Further, R package called SynergyFinder (He et al., 2018) was used to find the nature of drug-drug interaction (i.e. if they work in synergy or antagonistically or non-interactively). For this purpose, the drug response matrix is supplied to the mentioned package, which then uses several models namely Highest Single Agent (Berenbaum, 1989), Loewe additivity (Loewe, 1953), Bliss independence (Bliss, 1939) and Zero Interaction Potency (Yadav et al., 2015) to quantify the degree of drug synergy. The dose response matrix was used to calculate individual CI values for IC30, IC50 and IC70 drug treatments. The output values were used to plot isobolograms using the following formula. CI=IC50 (A) pair IC50 (A)+IC50 (B) pair IC50 (B)

SW1573 [2] = assay: Cell proliferation assay, 2D (IncuCyte live cell imaging); assay type: cell-based; settings: SW1573
Method: The cells were seeded at density of 10000 cells/well 12 hours prior to the experiment. Once the cells attached to the plate the media was removed and the drugs were added to the cells. […] Cell proliferation was observed using the IncuCyte Live Imaging System for 72 hrs.
Knockdown of ITGB4 (Cat #SR302473C) at the mRNA level in the SW1573 cells was done using siRNAs purchased from OriGene Technologies (Rockville, Md., USA). JetPRIME transfection reagent (Polyplus Transfection, Illkirch, France) was used to transfect the siRNAs according to the manufacturer's protocol. Cells were seeded in 6-well plates (200,000 cells/well) and allowed to adhere overnight. Next day, 10 nM siRNA was transfected with 4 μl jetPRIME reagent in complete growth medium for each well. Next day cells were trypsinized, counted and re-plated on the 96 well plate for cell proliferation and drug assay. […] Cell growth medium was changed the next day and expression was detected 72 h post-transfection by immunoblotting.
(§1) The cells grown in 2D cultures were treated with various concentrations of the drug, and the effect on cell proliferation was determined in real time using the live cell proliferation assay (IncuCyte, Essen Bioscience, Inc.) as described in the methods.
(§2) Cell proliferation and apoptosis assay: Cell proliferation assays were performed using cell lines stably transfected with NucLight Red Lentivirus (Essen BioScience) to accurately visualize and count the nucleus of a single cell. Cells were seeded on a 96-well plate and allowed to adhere for 24 h. Test compounds were added at indicated concentrations. Caspase-3/7 Green Apoptosis Reagent (Essen BioScience) was also added as a green fluorescent indicator of caspase3/7-mediated apoptotic activity. To monitor cell proliferation and apoptosis over time, the plate was placed in the IncuCyte S3 Live Cell Imaging System (Essen BioScience) and images were acquired every 2 hours. Data analysis was generated by the IncuCyte software using a red fluorescence mask to accurately count each cell nucleus and a green fluorescence mask to measure apoptosis over time. 3D spheroid assay 3D spheroid experiments were performed using cell lines stably transfected with NucLight Red Lentivirus (Essen BioScience) to visualize red fluorescence as an indicator of cell viability. Cells were seeded on a 96-well ultra-low attachment plate and allowed to form spheroids overnight. Drug treatment was added as indicated along with Cytotox Green Reagent (Essen BioScience), used as a green fluorescence indicator of cell death due to loss of cell membrane integrity. To monitor cell proliferation and apoptosis over time, the plate was placed in the IncuCyte S3 Live Cell Imaging System (Essen BioScience) and images were acquired every 2 hours. Data analysis was generated by the IncuCyte software using a red fluorescence mask to accurately measure intensity and area of red fluorescence, indicating spheroid viability and a green fluorescence mask, indicating cell death. Cell cycle analysis.

SW1573 NSCLC cells = assay: Mouse SW1573 xenograft; assay type: in vivo, Athymic nude nu/nu mice
Method: Mouse xenograft studies. Athymic nude nu/nu mice were obtained from Charles River, Wilmington, Mass., and were acclimated for a week before beginning the experiment. All animal experiments were carried out in accordance with a protocol approved by the Institutional Animal Care and Use Committee (IACUC #16004). […] All 40 animals were injected with 1×10^6 SW1573 cells suspensions in 100 μl of PBS, subcutaneously into one flank of each mouse. At the same time, animals were randomized into treatment groups. Treatment was started 12 days after the SW1573 NSCLC cells implantation to see palpable tumor growth. Treatments were given to mice via oral gavage twice a week for 8 weeks. Animals were examined daily for signs of tumor growth. Tumors were measured in two dimensions using calipers and body weights were recorded. Photographs of animals were taken at day 1, day 7, day 14, day 21, day 28, day 35, day 42, day 49, and day 56 after treatment. Photographs of tumors were also taken at day 56 after treatment. At the end of the study, the mice were euthanized by CO2 asphyxiation followed by cervical dislocation. The tumor weights were compared between groups using an unpaired Student's t-test. A portion of the tumor was fixed in 10% buffered formaldehyde solution and paraffin-embedded for immuno-staining or was snap-frozen in liquid nitrogen for further molecular analysis such as western blotting.

[3] = test system: cisplatin-refractory KRAS mutant NSCLC cells; assay: Sensitization of cisplatin-refractory cells; assay type: cell-based; settings: read-out: IC50 to sensitize cisplatin-refractory KRAS mutant NSCLC cells
Method: Furthermore, treating NSCLC cell lines that express high levels of ITGB4 and PXN (H358 and H2009) were treated with carfilzomib, H358 cells carrying the KRAS G12C mutation were more sensitive than H2009 cells harboring the G12A mutation. […] Taken together, these observations indicate that treating patients with carfilzomib in addition to targeting mutant KRAS will be more efficacious than carfilzomib treatment alone.

H23 cells = assay: Zebrafish larvae H23 xenotransplant; assay type: in vivo; settings: sotorasib 12 μM, adagrasib 2 μM, carfilzomib 1.6 mM as printed; Day 3
SW1573 cells = assay: Zebrafish larvae SW1573 xenotransplant; assay type: in vivo
Method: The inventors microinjected SW1573 cells into the perivitelline space of 48 hour post-fertilization (hpf) zebrafish larvae.

H23 spheroids = assay: 3D spheroid assay; assay type: cell-based; settings: H23
Method: (§3) The activation of apoptosis is marked with the increase in green fluorescence intensity.
(§4) To determine the sensitivities of the same cells in 3D, mKate expressing cells were used to generate spheroids. Spheroids were monitored in real time using the IncuCyte live cell imaging system (FIG. 1B).
as §2

SW1573 spheroids = assay: 3D spheroid assay; assay type: cell-based; settings: SW1573
Method: as §3, §4, §2

H358 spheroids = assay: 3D spheroid assay; assay type: cell-based; settings: H358
Method: as §3, §4, §2

H358 = assay: Cell proliferation assay, 2D (IncuCyte live cell imaging); assay type: cell-based; settings: H358
Method: as §1, §2

H23 = assay: as above; assay type: cell-based; settings: H23
Method: as §1, §2

SMILES: CC(C)C[C@H](NC(=O)[C@H](CCc1ccccc1)NC(=O)CN1CCOCC1)C(=O)N[C@@H](Cc1ccccc1)C(=O)N[C@@H](CC(C)C)C(=O)[C@@]1(C)CO1 [carfilzomib]
- inhibition at 0.01 µM (SW1573 [1]; carfilzomib 10 nM, 72 hours, read-out: inhibition of growth): 60%
- effect on cell growth (SW1573 [2]; 20 nM): slows cell growth
- tumor weight compared to control group (SW1573 NSCLC cells; end of study (day 56)): significant reduction in tumor weight
- reduction in tumor area (SW1573 NSCLC cells; sotorasib 10 mg/kg, adagrasib 10 mg/kg, carfilzomib 2 mg/kg, oral gavage twice a week, day 56): ~56%
- IC50 [3]: 0.0008 µM
- reduction of tumor growth (median) (H23 cells): ~82%
- most effective dose, drug alone (obliterates SW1573 cells) (SW1573 cells): 1.6 µM

SMILES: C=C(F)C(=O)N1CCN(c2nc(OC[C@@H]3CCCN3C)nc3c2CCN(c2cccc4cccc(Cl)c24)C3)C[C@@H]1CC#N [adagrasib]
- spheroids inviable (red mean intensity, last time point) (H23 spheroids; 0.6 μM): 40%
- better viability compared to untreated spheroids (SW1573 spheroids; 0.6 μM): 50%
- spheroids inviable (red mean intensity, last time point) (H358 spheroids; 0.6 μM): 80%

- IC50 (SW1573 [2]; Homo sapiens, 72 hours, Example 6): > 10 µM
SMILES: C=CC(=O)N1CCN(c2ncnc3c(F)c(-c4c(O)cccc4F)c(Cl)cc23)CC1 [ARS1620, (S)-1-(4-(6-chloro-8-fluoro-7-(2-fluoro-6-hydroxyphenyl)quinazolin-4-yl)piperazin-1-yl)prop-2-en-1-one]
- reduction of spheroid mean red intensity (H23 spheroids; 5 μM): 50%
- reduction in spheroid growth (H23 spheroids; 10 μM): 70%
- inhibition at 10 µM (SW1573 spheroids; Homo sapiens, 10 μM, read-out: inhibition of spheroid area / reduction in spheroid growth): ~25%
- reduction of spheroid mean red intensity (SW1573 spheroids; 5 μM): 40%
- reduction of spheroid mean red intensity (H358 spheroids; 5 μM): 80%
- reduction in spheroid growth (H358 spheroids; 10 μM): 70%
- inhibition at 10 µM (SW1573 [2]; Homo sapiens, 10 μM, 72 hours, read-out: inhibition of proliferation / cell growth): 20%
- inhibition of cell growth (H358; 2.5, 5 or 10 μM): 50%
- inhibition at 1.2 µM (H358; Homo sapiens, NCI-H358, 1.2 μM, 72 hours, read-out: inhibition of cell growth): 40%
- inhibition of cell growth (H23; at 1.2 (unit not given)): 30%
- inhibition at 5 µM (H23; Homo sapiens, NCI-H23, 5 μM, read-out: inhibition of cell growth): 50%
- inhibition at 10 µM (H23; Homo sapiens, NCI-H23, 10 μM, 72 hours, read-out: inhibition of proliferation / cell growth): 80%
- IC50 (H23; Homo sapiens, NCI-H23, 72 hours, Example 6): 7.6 µM

SMILES: C[C@@H]1C[C@H](C)CN(S(=O)(=O)c2ccc3c(c2)C(=NO)c2cc(S(=O)(=O)N4C[C@H](C)C[C@H](C)C4)ccc2C3=NO)C1 [tegatrabetan]
- inhibition at 0.01 µM (SW1573 [1]; tegatrabetan 10 nM, read-out: inhibition of cell growth): 10%
